Experimental data as given in PMC11124870, “Effect of Antioxidants in Medicinal Products on Intestinal Drug Transporters” (Pharmaceutics, 2024).
Values joined by “and” are separate entries in the source; they are usually repeats but may differ in a detail not shown here. Equal values may be shown once.

Key:
[1] = molecular target: T1, P-gp (Homo sapiens, UniProt P08183); test: Vesicular transport assay, 3H-NMQ uptake in P-gp membrane vesicles; assay type: biochemical; conditions: for % Uptake of 3H-NMQ P-gp: antioxidant 200 µM, uptake with DMSO set as 100%, mean ± SD, three replicates, membrane vesicles; for inhibition at 20 min, 200 µM: human, Sf9 membrane vesicles overexpressing human P-gp, pH 7, probe 3H-NMQ, 3H-NMQ
T1 construct: purchased ThermoFisher Scientific GM0015; host or cells: Sf9 membrane vesicles
Procedure: (§1) The vesicular transport assay was performed using Spodoptera frugiperda 9 (Sf9) membrane vesicles overexpressing human P-gp or BCRP, as reported previously with minor modifications. In brief, Isoplate 96-well flat-bottom white plates were preincubated with HBSS containing 0.5 mg/mL BSA on an orbital shaker in a 37 °C incubator at 90 rpm for 60 min followed by washing with HBSS. The assay mixture (75 µL/well) contained a probe substrate and either vehicle control, a known inhibitor of P-gp or BCRP, or an antioxidant, in vesicle uptake buffer (50 mM MOPS-Tris, pH 7.0 + 70 mM KCl + 7.5 mM MgCl2) prewarmed to 37 °C. After addition of the assay mixture, 5 μL/well (5 μg/μL stock concentration of the vesicles) of vesicles overexpressing human P-gp or BCRP was added. Uptake assays were initiated by adding 20 μL of either 25 mM adenosine triphosphate (ATP) or 25 mM adenosine monophosphate (AMP) to a final concentration of 5 mM. Plates were incubated at 37 °C for 20 min with orbital shaking (90 rpm). After 20 min, the uptake was quenched by adding 150 μL of ice-cold wash buffer (40 mM MOPS-Tris, pH 7.0 + 70 mM KCl) to each well, and the mixture was transferred to a 96-well filtration plate. Vacuum was applied, and the vesicles were washed three times with wash buffer. Vesicles were then lysed with 100 µL of MicroScint-20.

[2] = Table S1; source not stated; cited from earlier work
[3] = molecular target: T2, OATP2B1 (Homo sapiens, UniProt O94956); test: 3H-valsartan uptake inhibition in HEK-293-OATP2B1 cells; conditions: IC50 OATP2B1, valsartan uptake, substrate 3H-valsartan, three independent experiments
T2 sequence (O94956 1-709): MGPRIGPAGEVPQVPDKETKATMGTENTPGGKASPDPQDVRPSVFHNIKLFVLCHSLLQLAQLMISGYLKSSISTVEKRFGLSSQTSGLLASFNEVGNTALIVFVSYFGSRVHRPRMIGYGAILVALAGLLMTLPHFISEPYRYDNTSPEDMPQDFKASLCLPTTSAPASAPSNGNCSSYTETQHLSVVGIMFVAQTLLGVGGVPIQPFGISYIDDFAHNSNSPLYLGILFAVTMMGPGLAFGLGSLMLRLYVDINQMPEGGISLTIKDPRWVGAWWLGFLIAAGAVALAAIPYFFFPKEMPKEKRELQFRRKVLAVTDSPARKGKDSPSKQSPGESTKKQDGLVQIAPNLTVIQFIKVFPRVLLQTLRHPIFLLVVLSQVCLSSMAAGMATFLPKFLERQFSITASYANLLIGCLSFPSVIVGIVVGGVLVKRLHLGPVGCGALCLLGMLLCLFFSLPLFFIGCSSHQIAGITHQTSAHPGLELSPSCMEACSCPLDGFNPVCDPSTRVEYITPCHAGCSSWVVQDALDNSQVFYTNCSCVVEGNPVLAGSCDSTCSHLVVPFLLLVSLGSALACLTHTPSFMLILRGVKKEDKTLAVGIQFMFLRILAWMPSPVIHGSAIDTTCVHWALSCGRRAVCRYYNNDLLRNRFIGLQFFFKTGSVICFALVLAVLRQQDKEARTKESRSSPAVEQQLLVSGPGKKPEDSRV
Procedure: (§2) The uptake transporter assay was performed as reported previously with minor modifications [15]. A day before the uptake assay, Isoplate 96-well plates were coated with poly-D-lysine in PBS with calcium and magnesium and washed with PBS. […] An assay mixture of ^3H-estrone sulfate, a known inhibitor of OATP2B1, or an antioxidant was prepared and incubated in a 37 °C incubator for 10 min. The cells were washed with ice-cold HBSS three times and incubated with MicroScint fluid on a shaker for 1 h for cell lysis. Radioactivity was measured by liquid scintillation counting with a MicroBeta^2® microplate counter. […] On the day of experiment, cells were washed twice with 0.4 mL of HBSS per well and then pre-incubated for 10–20 min in 0.4 mL of HBSS. […] Uptake of ^3H-valsartan was stopped after 15 min by washing three times with ice-cold HBSS. Cells were lysed in 750 µL of lysis buffer (0.1 N NaOH and 0.1% SDS in double-distilled water) per well while shaking for 60 min. A total of 690 µL of the lysate from each well was then added to 2.5 mL of EcoLite scintillation fluid. The radioactivity was determined on a LS6500 Scintillation Counter (Beckman Coulter). Protein concentration was measured with a Pierce™ BCA protein assay kit. The radioactivity in each well was corrected for protein concentration. All values were determined in triplicate, and the final values are expressed as % uptake relative to negative control (1% DMSO).
(§3) Antioxidants were screened at a concentration of 200 μM.

[4] = molecular target: T3, BCRP (Homo sapiens, UniProt Q9UNQ0); test: Vesicular transport assay, 3H-CCK8 uptake in BCRP membrane vesicles; assay type: biochemical; parameters: purchased ThermoFisher Scientific GM0008; host or cells: Sf9 membrane vesicles; conditions: for % Uptake of 3H-CCK8 BCRP: antioxidant 200 µM, uptake with DMSO set as 100%, mean ± SD, three replicates, membrane vesicles; for inhibition at 20 min, 200 µM: human, Sf9 membrane vesicles overexpressing human BCRP, pH 7, probe 3H-CCK8, 3H-CCK8
T3 sequence (Q9UNQ0 1-655): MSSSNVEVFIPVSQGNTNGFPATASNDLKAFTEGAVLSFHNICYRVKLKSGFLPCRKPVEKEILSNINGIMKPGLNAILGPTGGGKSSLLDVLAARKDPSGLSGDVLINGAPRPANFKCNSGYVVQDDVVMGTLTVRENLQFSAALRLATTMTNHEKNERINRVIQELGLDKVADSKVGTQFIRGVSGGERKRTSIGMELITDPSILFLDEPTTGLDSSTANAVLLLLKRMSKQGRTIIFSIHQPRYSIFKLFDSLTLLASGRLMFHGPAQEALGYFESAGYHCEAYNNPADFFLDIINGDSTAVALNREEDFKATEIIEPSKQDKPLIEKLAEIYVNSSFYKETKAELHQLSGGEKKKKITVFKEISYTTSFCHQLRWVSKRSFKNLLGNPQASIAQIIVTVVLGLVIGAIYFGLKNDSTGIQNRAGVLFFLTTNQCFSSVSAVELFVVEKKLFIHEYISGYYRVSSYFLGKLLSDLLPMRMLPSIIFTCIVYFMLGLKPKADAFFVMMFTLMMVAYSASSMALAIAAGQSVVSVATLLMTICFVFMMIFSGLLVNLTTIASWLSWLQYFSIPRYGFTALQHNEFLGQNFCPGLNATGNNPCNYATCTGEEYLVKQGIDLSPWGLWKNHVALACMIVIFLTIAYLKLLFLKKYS
Procedure: as §1

[5] = molecular target: T2, OATP2B1; test: Uptake transporter assay, 3H-estrone sulfate uptake in HEK-293-OATP2B1 cells; conditions: for % Uptake of 3H-ES OATP2B1: antioxidant 200 µM, uptake with DMSO set as 100%, mean ± SD, three replicates, HEK-293-OATP2B1 cells
Procedure: as §2, §3

[6] = Estimation of intestinal luminal concentration (Igut), dose/250 mL; conditions: estimated from maximum oral amount (AP 10 mg, BHA 8 mg) in 250 mL intestinal fluid
Procedure: Igut is intestinal luminal concentration estimated as dose/250 mL. The Igut concentration was estimated using the following equation: Igut=A÷MW×V×10^6 where Igut is the estimated intestinal luminal concentration (µM), A is the amount of antioxidant in an oral dosage (mg), MW is the molecular weight, and V is the volume of intestinal fluid, i.e., 250 mL.

[7] = test system: P-gp; parameters: method as in PMID 19944162; conditions: cited from earlier work

T1 sequence (P08183 whole entry): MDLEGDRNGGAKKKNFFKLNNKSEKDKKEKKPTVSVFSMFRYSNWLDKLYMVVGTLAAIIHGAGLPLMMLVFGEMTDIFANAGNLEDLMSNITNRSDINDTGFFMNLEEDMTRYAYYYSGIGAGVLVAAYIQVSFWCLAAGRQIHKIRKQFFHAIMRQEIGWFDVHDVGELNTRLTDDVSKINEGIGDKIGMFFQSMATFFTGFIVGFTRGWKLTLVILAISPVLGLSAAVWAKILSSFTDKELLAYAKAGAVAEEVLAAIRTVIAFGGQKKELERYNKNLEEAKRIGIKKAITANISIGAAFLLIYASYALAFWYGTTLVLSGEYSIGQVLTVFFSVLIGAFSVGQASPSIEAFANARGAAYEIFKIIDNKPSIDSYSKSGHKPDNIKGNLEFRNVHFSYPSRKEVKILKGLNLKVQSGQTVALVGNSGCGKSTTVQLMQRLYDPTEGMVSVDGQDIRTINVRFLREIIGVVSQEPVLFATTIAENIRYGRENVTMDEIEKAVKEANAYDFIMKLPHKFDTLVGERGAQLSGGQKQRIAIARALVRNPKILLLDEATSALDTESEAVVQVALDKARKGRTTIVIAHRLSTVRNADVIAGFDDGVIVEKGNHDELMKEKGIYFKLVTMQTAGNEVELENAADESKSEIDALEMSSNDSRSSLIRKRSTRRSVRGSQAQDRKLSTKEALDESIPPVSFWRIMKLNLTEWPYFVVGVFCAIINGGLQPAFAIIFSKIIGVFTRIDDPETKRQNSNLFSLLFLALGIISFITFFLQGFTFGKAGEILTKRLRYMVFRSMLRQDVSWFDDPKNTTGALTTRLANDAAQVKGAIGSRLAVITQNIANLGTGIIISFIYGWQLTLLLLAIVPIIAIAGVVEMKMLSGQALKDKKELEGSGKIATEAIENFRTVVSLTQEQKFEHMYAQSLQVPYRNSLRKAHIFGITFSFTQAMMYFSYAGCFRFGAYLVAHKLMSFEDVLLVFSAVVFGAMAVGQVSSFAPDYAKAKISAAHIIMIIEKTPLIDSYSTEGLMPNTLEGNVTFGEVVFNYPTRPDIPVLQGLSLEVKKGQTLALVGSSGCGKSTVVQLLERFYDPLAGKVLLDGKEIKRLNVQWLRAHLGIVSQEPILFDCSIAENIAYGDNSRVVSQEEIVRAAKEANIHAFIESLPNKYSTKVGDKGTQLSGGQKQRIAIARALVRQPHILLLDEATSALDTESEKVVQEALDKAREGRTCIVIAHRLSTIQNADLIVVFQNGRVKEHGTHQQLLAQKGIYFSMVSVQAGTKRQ

| Compound | % Uptake of 3H-NMQ P-gp [1] [%] | inhibition at 20 min, 200 µM [1] [%] | LogP [2] | IC50 [3] | % Uptake of 3H-CCK8 BCRP [4] [%] | inhibition at 20 min, 200 µM [4] [%] | IC50 ([5]; IC50 OATP2B1, substrate 3H-estrone sulfate, mean ± SD of three independent experiments) [µM] | IC50 ([5]; IC50 with preincubation, OATP2B1 expressing cells pre-incubated 30 minutes, mean ± SD of three independent experiments) [µM] | Effect of 30 min pre-incubation on inhibition potency ([5]; OATP2B1-expressing cells pre-incubated for 30 min) | % Uptake of 3H-ES OATP2B1 [5] [%] | IC50 at 10 min ([5]; human, HEK-293 cells that express OATP2B1, probe 3H-estrone sulfate, IC50 without preincubation, OATP2B1 expressing cells, mean ± SD of three independent experiments) [µM] | inhibition at 10 min, 200 µM ([5]; human, HEK-293 cells that express OATP2B1, probe 3H-estrone sulfate, Inhibition of OATP2B1, 200 µM, 3H-estrone sulfate) [%] | Max Intestinal Conc (µM) in 250 mL Fluid [6] [µM] | P-gp inhibition in ATPase assays [7] | inhibition at 10 min, 200 µM ([5]; human, HEK-293 cells that express OATP2B1, probe 3H-estrone sulfate) [%] |
| --- | --- | --- | --- | --- | --- | --- | --- | --- | --- | --- | --- | --- | --- | --- | --- |
| CCCCCCCCCCCCCCCC(=O)OC[C@H](O)[C@H]1OC(=O)C(O)=C1O [Ascorbyl palmitate (AP), Ascorbyl palmitate] | 86.9 ± 12.4 | < 50 | 6 | 26 µM and 25.5 µM | 50.9 ± 9.9 | < 50 | 23 ± 10 | 95 ± 11.7 | did not further affect their inhibition potency | 28.3 ± 11.2 | 159 ± 65.9 | > 50 | 96.5 |  |  |
| CC(C)c1cc2c(c(O)c1O)[C@@]1(C(=O)O)CCCC(C)(C)[C@@H]1CC2 [Carnosic acid] | 0.0 ± 10.1 | ≥ 50 | 4.9 |  | 4.5 ± 4.8 | ≥ 50 |  |  |  | 18.8 ± 5.6 |  |  |  | identified as a P-gp inhibitor | ≥ 50 |
